The text below walks through data of patent US11066447B2, “Aureobasidium derivatives and methods of synthesis” (AureoGen Biosciences, Inc., priority 2016, dated 2021).

For test [1], the system named is C. albicans MMX 2000 ATCC 10231. In words: MIC assay (CLSI microdilution). It counts as cell-based. As to the method: (§1) Aureobasidin and test compounds (i.e., AbA derivatives of the present invention) were received from Kalexsyn, Inc. (Kalamazoo, Mich.) as powder and were stored at 4° C. until the day of assay. […] amphotericin was obtained from Sigma Aldrich and stored under like conditions. […] Ethanol (95%) was used as a solvent and diluent for all AbA compounds. Amphotericin B was tested from 0.06-64 μg/mL. Amphotericin B (Sigma Aldrich; St. Louis, Mo.; Cat No. A9528-100MG, Lot No. 120M4087) was dissolved and diluted with dimethylsulfoxide (DMSO; Sigma Aldrich; St. Louis, Mo.; Cat No. 472301 Lot No. SHBD2072V).
(§2) The solvents were added to the test agents and the stock solutions stood for approximately 1 hr at room temperature prior to use to auto sterilize. Stock solutions were prepared at 40× the desired top concentration in the test plate.
(§3) All of the test isolates were originally received from either the American Type Culture Collection (ATCC), clinical labs, or directly from Aureogen Biosciences. Organisms stored by Micromyx were cultured on agar medium appropriate to each organism. Colonies were picked by swab from the isolation plates and put into suspension in appropriate broth containing cryoprotectant. The suspensions were aliquoted into cryogenic vials and maintained at −80° C.
(§4) Prior to testing, Candida isolates were streaked from the frozen vials on Sabouraud dextrose agar. The yeast isolates were incubated for 48 hours at 35° C. before use. The fungal isolates were obtained from enumerated fungal stocks previously prepared at Micromyx and stored in phosphate buffered saline at 4° C.
(§5) Test Media. The medium employed for the MIC assay was RPMI-1640 medium from HyClone Laboratories (Logan, Utah; Lot No. AYB60287A). The medium was prepared according to Clinical and Laboratory Standards Institute (CLSI) guidelines (1, 2), and modified to include 0.002% Tween-80. Candida parapsilosis ATCC 22019 (MMX 2323) and Aspergillus fumigatus ATCC MYA-3626 (MMX 5280) were also tested without Tween-80 to provide data for the quality control of amphotericin B in accordance with CLSI (3) and to assess the effect of Tween-80 on the activity of the test agents.
(§6) Test Procedure. The MIC assay method followed the procedure described by CLSI (1, 2) and employed automated liquid handlers to conduct serial dilutions and liquid transfers. Automated liquid handlers included the Multidrop 384 (Labsystems, Helsinki, Finland), Biomek 2000 and Biomek FX (Beckman Coulter, Fullerton Calif.). The wells in columns 2-12 in standard 96-well microdilution plates (Costar 3795) were filled with 150 μl of the appropriate diluent (95% EtOH for investigational compounds, 100% DMSO for amphotericin B). These assay plates would become the ‘mother plates’ from which the assay ‘daughter plates’ would be prepared. The drugs (300 μL at 40× the desired top concentration in the test plates) were dispensed into the appropriate well in Column 1 of the mother plates. The Biomek 2000 was used to make two-fold serial dilutions through Column 11 in the “mother plate”. The wells of Column 12 contained no drug and served as the organism growth control wells.
(§7) The daughter plates were loaded with 185 μL per well on the Multidrop 384 with RPMI plus 0.002% Tween-80 or RPMI containing no Tween-80 for the testing of the two QC isolates. The daughter plates were prepared on the Biomek FX instrument which transferred 5 μL of drug solution from each well of a mother plate to each corresponding well of each daughter plate in a single step.
(§8) A standardized inoculum of each organism was prepared per CLSI methods (1, 2). For the Candida isolates, colonies were picked from the streak plate and a suspension was prepared in RPMI to equal a 0.5 McFarland standard. This suspension was diluted 1:100 in RPMI resulting in a final concentration of approximately 0.5-2.5×10^3 CFU/mL. […]
On the technique in general: Broth dilution looks for growth in wells or tubes with falling amounts of substance.

Test [2] has as its system C. neoformans MMX 0634 ATCC 90112. As to the kind of experiment: MIC assay (CLSI microdilution). It counts as cell-based. As to the method: as §1, §2, §3, §4, §5, §6, §7, §8
Test [3] relates to A. fumigatus MMX 5280 ATCC MYA-3626. As to the kind of experiment: MIC/MEC assay (CLSI microdilution). It counts as cell-based, Aspergillus fumigatus. As to the method:
as §1, §2, §3, §4, §5, §6, §7, §8

In test [4] the test system is A. fumigatus MMX 6782 ATCC 13073. In words: MIC/MEC assay (CLSI microdilution). It counts as cell-based. As to the method:
as §1, §2, §3, §4, §5, §6, §7, §8

Test [5] concerns A. fumigatus MMX 5944. In words: MIC/MEC assay (CLSI microdilution). It counts as cell-based. As to the method:
as §1, §2, §3, §4, §5, §6, §7, §8

The subject of test [6] is A. niger MMX 0624 ATCC 16888. In words: MIC/MEC assay (CLSI microdilution). It counts as cell-based. As to the method: as §1, §2, §3, §4, §5, §6, §7, §8
Test [7] has as its system A. flavus MMX 5948. As to the kind of experiment: MIC/MEC assay (CLSI microdilution). Format: cell-based. As to the method:
as §1, §2, §3, §4, §5, §6, §7, §8

In test [8] the test system is A. fumigatus MMX 6781 ATCC MYA-4609. In words: MIC/MEC assay (CLSI microdilution). It counts as cell-based. As to the method: as §1, §2, §3, §4, §5, §6, §7, §8
Test [9] has as its system C. parapsilosis MMX 2323 ATCC 22019. As to the kind of experiment: MIC assay (CLSI microdilution). Format: cell-based, Candida parapsilosis. As to the method: as §1, §2, §3, §4, §5, §6, §7, §8
Setting [10] is: RPMI plus 0.002% Tween-80, 48 hr.
The mark [11] stands for this setting: Aspergillus fumigatus, 48 h, RPMI plus 0.002% Tween-80, read-out: MIC.

Converted amounts (≈) assume the structure as drawn. Like-named read-outs stand apart in the source and are kept apart here. Numbered stars: 1 amine (or outer) side, 2 acyl side, 3 side chain; on linkers, the order of the positions; unused ones are H or OH. Square brackets hold non-standard residues; d marks the D form. Peptide text beside a SMILES is read from it. X29 = CN([C@@H](Cc1cccc(-c2ccc(F)cc2)c1)C(=O)[*:2])[*:1]; X34 = CC[C@@H](C)[C@@H](O[*:1])C(=O)[*:2]; Hmp(2R,3S) = CC[C@H](C)[C@@H](O)C(=O)O; NMeVal(β-OH) = CN[C@H](C(=O)O)C(C)(C)O; NMeF = CN[C@@H](Cc1ccccc1)C(=O)O; aIle = CC[C@@H](C)[C@H](N)C(=O)O; NMeV = CN[C@H](C(=O)O)C(C)C Bounds are passed on as bounds.

For `CC[C@@H](C)[C@@H]1NC(=O)[C@@H]2CCCN2C(=O)[C@H](Cc2ccccc2)N(C)C(=O)[C@H](Cc2ccccc2)NC(=O)[C@H](C(C)C)N(C)C(=O)[C@@H]([C@H](C)CC)OC(=O)[C@H](C(C)(C)O)N(C)C(=O)[C@H](CC(C)C)NC(=O)[C@H](C(C)C)N(C)C1=O` [Aureobasidin A, reference compound] (cyclo(F[NMeF]P[aIle][NMeV]L[NMeVal(β-OH)][X34][NMeV])), the MIC (commonly the smallest concentration in the dilution series that meets the test's criterion for growth inhibition) in [1] (RPMI plus 0.002% Tween-80) is no more than 0.002 µg/mL; in test [2] (RPMI plus 0.002% Tween-80) it was 0.06 µg/mL; in [3] (setting [10]) it was >64/>64 μg/mL; in test [3] (Without Tween-80, 48 hr), >64/>64 μg/mL; in test [4] (setting [10]) it was greater than 64 µg/mL; in test [5] (setting [10]) it was greater than 64 µg/mL. Moreover, the minimum inhibitory concentration (MIC) was >64/>64 μg/mL in test [6] (setting [10]); >64/>64 μg/mL in test [7] (setting [10]); >64/>64 μg/mL in test [8] (setting [10]); 0.008 µg/mL in [9] (RPMI plus 0.002% Tween-80); 0.25 µg/mL (≈ 0.227 µM) in test [9] (Without Tween-80). For the same compound, the MEC in [3] (setting [10]) was >64/>64 μg/mL; in test [3] (Without Tween-80, 48 hr) it was >64/>64 μg/mL; in test [4] (setting [10]), 2 µg/mL; in test [5] (setting [10]), 2 µg/mL; in test [6] (setting [10]) it was >64/>64 μg/mL; in test [7] (setting [10]) it was >64/>64 μg/mL. Moreover, the MEC in [8] (setting [10]) is reported as >64/>64 μg/mL.
In the case of `CC[C@H](C)[C@@H]1NC(=O)[C@@H]2CCCN2C(=O)[C@H](Cc2cccc(-c3ccc(F)cc3)c2)N(C)C(=O)[C@H](Cc2ccccc2)NC(=O)[C@H](C(C)C)N(C)C(=O)[C@@H]([C@@H](C)CC)OC(=O)[C@H](C(C)(C)O)N(C)C(=O)[C@H](CC(C)C)NC(=O)[C@H](C(C)C)N(C)C1=O` [Compound 1] (cyclo(F[X29]PI[NMeV]L[NMeVal(β-OH)][Hmp(2R,3S)][NMeV])), the MIC in test [1] (Candida albicans, ATCC10231, RPMI plus 0.002% Tween-80, read-out: MIC) is 0.015 µg/mL; in test [2] (Cryptococcus neoformans, ATCC90112, RPMI plus 0.002% Tween-80, read-out: MIC) it was 0.12 µg/mL; in test [3] (setting [11]), greater than 64 µg/mL; in test [3] (Aspergillus fumigatus, 48 h, Without Tween-80, read-out: MIC), greater than 64 µg/mL; in [4] (Aspergillus fumigatus, ATCC13073, 48 h, RPMI plus 0.002% Tween-80, read-out: MIC), greater than 64 µg/mL; in test [5] (Aspergillus fumigatus, MMX5944, 48 h, RPMI plus 0.002% Tween-80, read-out: MIC) it was greater than 64 µg/mL. In addition, the minimal inhibitory concentration (MIC) in [6] (Aspergillus niger, ATCC16888, 48 h, RPMI plus 0.002% Tween-80, read-out: MIC) is 0.25 µg/mL; in test [7] (Aspergillus flavus, MMX5948, 48 h, RPMI plus 0.002% Tween-80, read-out: MIC), greater than 64 µg/mL; in test [8] (setting [11]), greater than 64 µg/mL; in [9] (ATCC22019, RPMI plus 0.002% Tween-80, read-out: MIC) it was 0.12 µg/mL; in [9] (ATCC22019, Without Tween-80, read-out: MIC), 1 µg/mL (≈ 0.836 µM). Moreover, the minimal effective concentration turned out to be 0.5 µg/mL in [3] (Aspergillus fumigatus, 48 h, RPMI plus 0.002% Tween-80, read-out: MEC); 2 µg/mL in [3] (Aspergillus fumigatus, 48 h, Without Tween-80, read-out: MEC); 0.5 µg/mL in test [4] (Aspergillus fumigatus, ATCC13073, 48 h, RPMI plus 0.002% Tween-80, read-out: MEC); 0.5 µg/mL in test [5] (Aspergillus fumigatus, MMX5944, 48 h, RPMI plus 0.002% Tween-80); 0.25 µg/mL in [6] (Aspergillus niger, ATCC16888, 48 h, RPMI plus 0.002% Tween-80, read-out: MEC); 1 µg/mL in test [7] (Aspergillus flavus, MMX5948, 48 h, RPMI plus 0.002% Tween-80). The minimal effective concentration in test [8] (Aspergillus fumigatus, RPMI plus 0.002% Tween-80, 48 hr) is 0.5 µg/mL.
